Measured values reported in patent publication US9220767B2 (priority 2008, dated 2015).

Legend:
[1] = system: three prototypical strains (A/Brisbane/10/2007, A/Brisbane/59/2007, and B/Florida/4/2006); experiment: Indirect hemagglutination assay (IHA) of immunised mice sera, statements not split by strain; format: in vivo; settings: for IHA titers induced by Fluarix vaccination: mice immunised twice with Fluarix + adjuvant, vs Fluarix alone (Example 3)
Procedure: (§1) Mice were injected by intramuscular route at day 0 and day 21 with: • NaCl, • 1 μg Fluarix® alone, • 1 μg Fluarix®+1 μg PBS-57/S, or • 1 μg Fluarix®+1 μg PBS-57/L.
(§2) Sera were collected at day 42 and reactivity with the three prototypical strains (A/Brisbane/10/2007, A/Brisbane/59/2007, and B/Florida/4/2006) of Fluarix® vaccine was assayed by measuring IHA titers for each of these strains (see FIG. 7).
(§3) Mice were injected by intramuscular route at day 0 and day 21 with: • nothing (naïve mice), • PBS, • 4 μg Agrippal® alone, • 8.9 μg Agrippal® alone, • 4 μg Agrippal®+1 μg PBS-57 in liposome formulation (PBS-57/L) or PBS-14 liposome formulation (PBS-14/L), or • 8.9 μg Agrippal®+1 μg PBS-57 in PEGylated form (PBS-57/S) or PBS-57/L or PBS-14/L.
(§4) Sera were collected at day 42 and reactivity with the three prototypical strains (H3 A/Brisbane/10/2007, H1 A/Brisbane/59/2007, and B/Florida/4/2006) of Agrippal® vaccine was assayed by measuring IHA titers for each of these strains (see FIG. 8).
Mice were injected by intramuscular route at day 0 with: • NaCl, • PBS-57/D alone, • PBS-57/L alone, • PBS-57/S alone, • 4 μg Agrippal® alone, • 8.9 μg Agrippal® alone, • 4 μg Agrippal®+1 μg PBS-57 in liposome formulation (PBS-57/L) or in pegylated form (PBS-57/S) or in DMSO (PBS-57/D), or • 8.9 μg Agrippal®+1 μg PBS-57/L or PBS-57/S or PBS-57/D.
Sera were collected at day 21 and reactivity with the three prototypical strains (H3 A/Brisbane/10/2007, H1 A/Brisbane/59/2007, and B/Florida/4/2006) of Agrippal® vaccine was assayed by measuring IHA titers for each of these strains (see FIG. 9).
Mice were injected by intramuscular route at day 0 with: • PBS, • 1 μg PBS-57 in DMSO (PBS-57/D) alone • 1 μg PBS-57 in PEGylated form (PBS-57/S) alone, • 1 μg PBS-57 in liposome formulation (PBS-57/L) alone, • 4 μg Agrippal® alone, • 8.9 μg Agrippal® alone, • 4 μg Agrippal®+1 μg PBS-57/D, PBS-57/S or PBS-57/L, or • 8.9 μg Agrippal®+1 μg PBS-57/D, PBS-57/S or PBS-57/L.
(§5) Agrippal® vaccine comprises a mixture of A/Brisbane/10/2007-like, A/Brisbane/59/2007-like, and B/Florida/4/2006-like strains.
Sera were collected at day 21 and reactivity with the three prototypical strains (H3 A/Brisbane/10/2007, H1 A/Brisbane/59/2007, and B/Florida/4/2006) of Agrippal® vaccine was assayed by measuring IHA titers for each of these strains (see FIG. 20).

IgG1, IgG2a and IgG2b = experiment: Detection of IgG1, IgG2a and IgG2b in mouse sera by ELISA after intramuscular Agrippal and adjuvants; format: in vivo, mice; settings: for level of IgG1 in sera / level of IgG2a in sera / level of IgG2b in sera: 1, 4 or 8.9 μg Agrippal alone or + 1 μg adjuvant, ELISA; for level of IgG1 when the dose of Agrippal combined to the adjuvant was increased / level of IgG2a when the dose of Agrippal combined to the adjuvant was increased / level of IgG2b when the dose of Agrippal combined to the adjuvant was increased: Agrippal 1 to 8.9 μg + 1 μg adjuvant
Procedure: Mice were injected at day 0 and day 21 with: • PBS, • 1 μg Agrippal® alone, • 1 μg Agrippal®+1 μg PBS-57 in pegylated form or liposome formulation (PBS-57/S or PBS-57/L) or PBS-14 liposome formulation (PBS-14/L), • 4 μg Agrippal® alone, • 4 μg Agrippal®+1 μg PBS-57/S or PBS-57/L or PBS-14/L, • 8.9 μg Agrippal® alone, or • 8.9 μg Agrippal®+1 μg PBS-57/S or PBS-57/L or PBS-14/L.
Sera were collected at day 42 and the IgG1, IgG2a and IgG2b content of the sera was analysed by ELISA.
Mice were injected at day 0 with: • PBS, • 1 μg Agrippal® alone, • 1 μg Agrippal®+1 μg PBS-57 in pegylated form or liposome formulation (PBS-57/S or PBS-57/L) • 4 μg Agrippal® alone, • 4 μg Agrippal®+1 μg PBS-57/S or PBS-57/L, • 8.9 μg Agrippal® alone, or • 8.9 μg Agrippal®+1 μg PBS-57/S or PBS-57/L.
Sera were collected at day 21 and the IgG1 and IgG2b content of the sera was analysed by ELISA.

[2] = system: iNKT (Vβ11/Vα24+ cells) from adults PBMC; experiment: In vitro iNKT activation, adult PBMC; format: cell-based; settings: 7 days culture with IL-2, 10 or 100 ng/ml, compared to 100 ng α-GalCer
Procedure: (§6) Adults PBMC and cord blood mononuclear cells (CBMC) were either non stimulated, or cultured in vitro with IL-2 alone or IL-2 combined with 100 ng α-GalCer or PBS-57/D or PBS-57/L (at 10 ng/ml or 100 ng/ml).
(§7) After 7 days of culture, activation of iNKT was determined by assessing the percentage of Vβ11/Vα24^+ cells amplified from PBMC or CBMC (FIGS. 13 and 14).

H1 A/Brisbane/59/2007 = experiment: Indirect hemagglutination assay (IHA) of immunised mice sera, strain A/Brisbane/59/2007; format: in vivo; settings: 1 μg Fluarix + 1 μg adjuvant i.m. day 0 and 21; sera day 42; vs Fluarix alone
Procedure: as §1
(§8) Fluarix® vaccine comprises a mixture of A/Brisbane/10/2007-like, A/Brisbane/59/2007-like, and B/Florida/4/2006-like strains.
as §2, §3, §5, §4

B/Florida/4/2006 = experiment: Indirect hemagglutination assay (IHA) of immunised mice sera, strain B/Florida/4/2006; format: in vivo; settings: 1 μg Fluarix + 1 μg adjuvant i.m. day 0 and 21; sera day 42; vs Fluarix alone
Procedure: as §1, §8, §2, §3, §5, §4

[3] = system: iNKT (Vβ11/Vα24+ cells) from cord blood mononuclear cells (CBMC); experiment: In vitro iNKT activation, cord blood mononuclear cells; format: cell-based; settings: 7 days culture with IL-2, 10 or 100 ng/ml, compared to 100 ng α-GalCer
Procedure: as §6, §7

H3 A/Brisbane/10/2007 = experiment: Indirect hemagglutination assay (IHA) of immunised mice sera, strain A/Brisbane/10/2007; format: in vivo; settings: 1 μg Fluarix + 1 μg adjuvant i.m. day 0 and 21; sera day 42; vs Fluarix alone
Procedure: as §1, §8, §2, §3, §5
Sera were collected at day 42 and reactivity with the three prototypical strains (H3 A/Brisbane/10/2007, H1 A/Brisbane/59/2007, and B/Florida/4/2006) of Agrippal® vaccine was assayed by measuring IHA titers for each of these strains (see FIG. 8). […]

[4] = mice immunised twice (day 0, 21) with Agrippal + 1 μg adjuvant, sera day 42 (Example 4)
[5] = single injection day 0 of Agrippal + 1 μg adjuvant, sera day 21 (Example 5)
[6] = mice injected day 0 and day 21, sera day 42
[7] = two injections (day 0, 21), sera day 42
[8] = single injection day 0, sera day 21

Compound	IHA titers as compared with the Agrippal vaccine alone [1, 4]	IHA titers induced by Fluarix vaccination [1]	IHA titers as compared with the Agrippal vaccine alone [1, 5]	level of IgG1 in sera (IgG1, IgG2a and IgG2b; [6])	level of IgG2a in sera (IgG1, IgG2a and IgG2b; [6])	level of IgG2b in sera (IgG1, IgG2a and IgG2b; [6])	level of IgG1 when the dose of Agrippal combined to the adjuvant was increased (IgG1, IgG2a and IgG2b; [7])	level of IgG2a when the dose of Agrippal combined to the adjuvant was increased (IgG1, IgG2a and IgG2b; [7])	level of IgG2b when the dose of Agrippal combined to the adjuvant was increased (IgG1, IgG2a and IgG2b; [7])	activation of iNKT (percentage of Vβ11/Vα24+ cells amplified) [2]	IHA titers induced by Fluarix vaccination against A/Brisbane/59/2007 (H1 A/Brisbane/59/2007)	IHA titers induced by Fluarix vaccination against B/Florida/4/2006 (B/Florida/4/2006)	activation of iNKT (percentage of Vβ11/Vα24+ cells amplified) [3]	IHA titers as compared with the Agrippal vaccine alone ([1]; single injection day 0 of 4 or 8.9 μg Agrippal + 1 μg adjuvant, sera day 21 (Example 12))	IHA titers induced by Fluarix vaccination against A/Brisbane/10/2007 (H3 A/Brisbane/10/2007)	level of IgG1 in sera (IgG1, IgG2a and IgG2b; [8])	level of IgG2b in sera (IgG1, IgG2a and IgG2b; [8])	level of IgG1 when the dose of Agrippal combined to the adjuvant was increased (IgG1, IgG2a and IgG2b; [8])	level of IgG2b when the dose of Agrippal combined to the adjuvant was increased (IgG1, IgG2a and IgG2b; [8])
CCCCCCCCCCCCCCCCCCCCCCCCCC(=O)N[C@@H](COC1OC(CNC(C)=O)C(O)C(O)C1O)[C@H](O)[C@H](O)CCCCCCCCCCCCCC (stereo partly shown) [PBS-14]	increased IHA titers	same results	increased IHA titers	increases	increases	increases	not significantly further increased	not significantly further increased	not significantly further increased										
CCCCCCCC/C=C\CCCCCCCCCCCCCC(=O)N[C@@H](COC1OC(CNC(C)=O)C(O)C(O)C1O)[C@H](O)[C@H](O)CCCCCCCCCCCCCC (stereo partly shown) [PBS-57]	increased IHA titers		increased IHA titers	increases	increases	increases	not significantly further increased	not significantly further increased	not significantly further increased	stronger activation of iNKT compared to α-GalCer	enhanced but to a less significant level	significantly enhanced	stronger activation of iNKT compared to α-GalCer	increased IHA titers	significantly enhanced	increases	increases	not significantly further increased	not significantly further increased
CCCCCCCCCCCCCCCCCCCCCCCC(=O)N[C@@H](COC1OC(CNC(C)=O)C(O)C(O)C1O)[C@H](O)[C@H](O)CCCCCCCCCCCCCC (stereo partly shown) [PBS-96]		same results																	
